Reference: US20200172911A1, “USP30 INHIBITORS AND METHODS OF USE” (Genentech, Inc., priority 2012, published 2020)
Where two headings read alike, the source gives them in different places. Each block holds one compound with its values, some of them ahead of it. Where a SMILES comes first, the peptide text is derived from it. Bridges are numbered along the chain shown (N, C = ends).

Legend:
Drosophila [1] = assay: climbing assay with paraquat; assay type: in vivo; conditions: control flies, paraquat 10 mM 48 hours, L-DOPA 1 mM 48 hours
Method: Climbing assays were performed using the following Drosophila lines: y, w; Actin5C-GAL4/CyO, y+ (Actin only); y, w; UAS-CG3016-RNAi/CyO, y+ (RNAi only); y, w; UAS-CG3016^RNAi, Actin5C-GAL4/CyO, y+ (USP30 knockdown).
1-day old adult males were fed a solution containing 5% sucrose only (in water) or 5% sucrose+10 mM paraquat (in water) on saturated Whatman paper. After 48 hours of treatment, flies were anesthetized using carbon dioxide and transferred in groups of ten to vials containing only 1% agarose for a 1-hour recovery period from the effects of carbon dioxide. The flies were then transferred into a new glass tube, gently tapped to the bottom and scored for their ability to climb. The number of flies climbing vertically >15 cm in 30 seconds was recorded.
To examine the effect of suppressing USP30 in neurons that are relevant to PD, we used dopamine decarboxylase (Ddc)-GAL439 to drive dUSP30^RNAi specifically in aminergic neurons of the fly nervous system. As a model of mitochondrial damage and PD, we treated flies with paraquat, a mitochondrial toxin linked to PD (Castello et al., J. Biol. Chem., 282: 14186-14193 (2007); Cocheme et al., J. Biol. Chem., 283: 1786-1798 (2008); Tanner et al., Environmental Health Perspect., 119: 866-872 (2011)). […]

Drosophila [2] = assay type: in vivo; conditions: Actin-GAL4 and UAS-dUSP30^RNAi control groups, paraquat 10 mM, 96 hours
Method: Ten adult 1-day old males per vial were fed a solution containing 5% sucrose only (in water) or 5% sucrose+10 mM paraquat (in water) on saturated Whatman paper. The number of live flies was counted at described intervals.
To test whether USP30 knockdown has an effect on organism survival, we monitored the percentage of live flies over prolonged treatment with paraquat (10 mM, 96 hours). […] Only <15% of flies treated with paraquat were alive in Actin-GAL4 and UAS-dUSP30^RNAi control groups at 96 hours whereas ˜45% of flies were alive in the Actin-GAL4>UAS-dUSP30^RNAi (‘whole body dUSP30 knockdown’) group (FIG. 12G). We confirmed that the benefit of USP30 knockdown was not due to differences in exposure to paraquat since all three fly lines ingested roughly equal amounts of paraquat as measured by LC-MS/MS (average mass of paraquat per fly: UAS-dUSP30^RNAi: 3.2 μg, Actin-GAL4: 2.7 μg, Actin-GAL4>UAS-dUSP30R^RNAi: 2.7 μg). […] Remarkably, USP30 knockdown specifically in Ddc neurons was sufficient to provide significant survival benefit, albeit less than the whole body USP30 knockdown (FIG. 12H).

[3] = assay type: in vivo, Drosophila; conditions: 10 mM, 48 hours
Method: 1-day old adult males were fed a solution containing 5% sucrose only (in water) or 5% sucrose+10 mM paraquat (in water) on saturated Whatman paper. After 48 hours of treatment, 15 flies were collected per condition and homogenized in 100 μL water. Standard curve samples were generated by spiking appropriate amounts of paraquat to homogenates from untreated flies. Then the samples were vortex mixed, 200 μL of acetonitrile containing internal standard (Propranolol) was added. The samples were vortexed again and centrifuged at 10,000×g for 10 min. Supernatants were transferred to a new plate that contained 200 μL of water and analyzed by LC-MS/MS to quantify for concentrations of paraquat. The LC-MS/MS consisted of an Agilent 1100 series HPLC system (Santa Clara, Calif.) and an HTS PAL autosampler from CTC Analytics (Carrboro, N.C.) coupled with a 4000 Q TRAP® MS and TurbolonSpray® ion source from Applied Biosystems (Foster City, Calif.). HPLC separation was performed on a Waters Atlantis dC18 column (3 μm 100×2.1 mm) with a Krud Katcher guard column from Phenomenex. Quantitation was carried out using the multiple reaction monitoring (MRM) with transition 185.1→165.1 for paraquat and 260.2→183.1 for propranolol. The lower and upper limit of the assay is 10 μM and 1000 μM, respectively. The quatitation of the assay employed a calibration curve which was constructed through plotting the analyte/IS peak area ration versus the nominal concentration of paraquat with a weighed 1/x^2 linear regression.
To test whether USP30 knockdown has an effect on organism survival, we monitored the percentage of live flies over prolonged treatment with paraquat (10 mM, 96 hours). […] We confirmed that the benefit of USP30 knockdown was not due to differences in exposure to paraquat since all three fly lines ingested roughly equal amounts of paraquat as measured by LC-MS/MS (average mass of paraquat per fly: UAS-dUSP30^RNAi: 3.2 μg, Actin-GAL4: 2.7 μg, Actin-GAL4>UAS-dUSP30R^RNAi: 2.7 μg). […]

Drosophila [4] = assay: dopamine levels in fly heads by ELISA; assay type: in vivo; conditions: control fly lines, paraquat 10 mM, 48 hours
From the text: To examine the effect of suppressing USP30 in neurons that are relevant to PD, we used dopamine decarboxylase (Ddc)-GAL439 to drive dUSP30^RNAi specifically in aminergic neurons of the fly nervous system. As a model of mitochondrial damage and PD, we treated flies with paraquat, a mitochondrial toxin linked to PD (Castello et al., J. Biol. Chem., 282: 14186-14193 (2007); Cocheme et al., J. Biol. Chem., 283: 1786-1798 (2008); Tanner et al., Environmental Health Perspect., 119: 866-872 (2011)). […] This climbing defect was fully rescued by additional treatment with L-DOPA (FIG. 17D), showing that this behavioral deficit is likely due to depletion of dopamine. Consistently, in control fly lines (Ddc-GAL4 or UAS-dUSP30^RNAi transgenics alone), paraquat treatment (10 mM, 48 hours) caused a 30-60% reduction in dopamine levels in fly heads without altering serotonin neurotransmitter levels (indicating specific toxicity of paraquat on the dopaminergic system in this model—FIG. 12F and FIG. 17E).

[5] = system: cultured hippocampal neurons; assay: mt-Keima mitophagy index imaging in hippocampal neurons; assay type: cell-based, rat; conditions: relative to luciferase shRNA
Method: Dissociated hippocampal neuron cultures were prepared as described (Seeburg et al., Neuron 58: 571-583 (2008)) and transfected using Lipofectamine LTX PLUS at DIV 8-10. Constructs were expressed for 1-3 days for overexpression experiments and 3-4 days for knockdown experiments. mt-Keima-transfected neurons were imaged with a Leica TCS SP5 Laser Scanning Confocal microscope with a 40×/1.25 oil objective (0.07 μm/pixel resolution, […] confocal z-step size). Cells were kept in a humidified chamber maintained at 37° C./5% CO2 during imaging. Two images were acquired using a hybrid detector in sequential mode with 458 nm (neutral pH signal) and 543 nm (acidic pH signal) laser excitation, and emission fluorescence collected between 630-710 nm. All image quantification was performed by custom-written macros in ImageJ. For mt-Keima quantification, cell bodies were manually outlined and total area of high ratio (543 nm/458 nm) lysosomal signal was divided by the total area of somatic mitochondrial signal (mitophagy index).
To measure mitophagy in neurons, mt-Keima, a ratiometric pH-sensitive fluorescent protein that is targeted into the mitochondrial matrix, was monitored. A low ratio mt-Keima-derived fluorescence (543 nm/458 nm) reports neutral environment whereas a high ratio fluorescence reports acidic pH (Katayama et al., Chemistry & Biology 18: 1042-1094 (2011)). […]

USP30 = assay: immunoblot of endogenous USP30 in neuronal cultures; assay type: cell-based, rat
From the text: Adeno-associated virus type2 (AAV2) particles expressing Parkin, PINK1 and USP30 shRNAs were produced by Vector Biolabs, Inc. from pAAV-BASIC-CAGeGFP-WPRE vector containing the HI promoter and shRNA expression cassette of the pSuper vectors.
To test the function of endogenous USP30, USP30 was knocked down using shRNAs. In heterologous cells, rat USP30 shRNA plasmid specifically eliminated the expression of transfected rat USP30 cDNA (FIG. 5B). The same rat USP30 shRNA led to a ˜85% reduction in endogenous USP30 in neuronal cultures (FIG. 5C). In neurons, USP30 knockdown increased the lysosomal delivery of mt-Keima (˜60% increase in mitophagy index), relative to negative control luciferase shRNA (FIG. 5D, F).

hippocampal neurons = assay: mito-roGFP relative oxidation index imaging; assay type: cell-based, rat; conditions: 0 = after DTT, 1 = after aldrithiol; luciferase shRNA control ~0.6
From the text: Whether USP30 knockdown provides functional benefit to mitochondria and cells was examined next. ROS—which largely derive from mitochondria—is associated with neurodegenerative disorders and mitochondria dysfunction may contribute to increased oxidative stress in PD (Lee et al., Biochem. J, 441: 523-540 (2012)). To measure oxidative stress in mitochondria, mitochondria matrix-targeted ro-GFP (mito-roGFP), a redox-sensitive fluorescent protein that allows quantitative ratiometric imaging of mitochondrial redox potential was used (Dooley et al., J. Biol. Chem. 279: 22284-22293 (2004)).

[6] = target: T1, USP30_cd (USP30 catalytic domain with C77A mutation) (Homo sapiens, UniProt Q70CQ3, C77A); assay: spot phage ELISA against biotinylated USP30_cd; assay type: binding; conditions: USP30_cd on NeutrAvidin plate versus NeutrAvidin plate alone
T1 construct: biotinylated USP30_cd (USP30 catalytic domain with C77A mutation); biotin (biotinylated)
T1 sequence (Q70CQ3 68-502 C77A limits assumed): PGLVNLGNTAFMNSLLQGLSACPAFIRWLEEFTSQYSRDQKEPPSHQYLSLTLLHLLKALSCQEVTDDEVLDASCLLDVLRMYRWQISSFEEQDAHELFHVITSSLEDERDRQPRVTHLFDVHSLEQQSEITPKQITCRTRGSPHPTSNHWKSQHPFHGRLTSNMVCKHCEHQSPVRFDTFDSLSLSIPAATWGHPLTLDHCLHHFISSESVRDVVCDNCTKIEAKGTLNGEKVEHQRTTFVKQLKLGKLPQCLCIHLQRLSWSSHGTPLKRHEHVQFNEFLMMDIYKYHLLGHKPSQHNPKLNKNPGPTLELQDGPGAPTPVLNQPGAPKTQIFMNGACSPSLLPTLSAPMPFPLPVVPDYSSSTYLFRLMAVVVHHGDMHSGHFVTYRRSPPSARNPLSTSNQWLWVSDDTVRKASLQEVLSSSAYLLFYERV
From the text: The selection identified peptide USP30_3 and USP30_8, which had moderate spot ELISA signals (signal/noise ratios of ˜5). USP_30 and USP_8 have the sequences:
Peptide USP30_3 was selected for affinity maturation. To improve the affinity, a soft randomized library was constructed using the USP30_3 sequence as the targeted parent, and panned against USP30_cd in solution as described previously (Stanger, et al., 2012, Nat. Chem. Bio., 7: 655-660). After four rounds of solution panning, 20 peptides were identified that bound to USP30 catalytic domain with stronger spot phage ELISA signal than the parent USP30_3, manifested by an improvement in the signal/noise ratio of about 3-6 fold.
The sequences for certain affinity matured peptides are shown below the graph, along with the signal to noise ratio (“S/N”), which is the ratio of the spot phage ELISA signal (“signal”) detected against biotinylated USP30 cd captured on NeutrAvidin-coated 384 well Maxisorb plates versus the ELISA signal against the NeutrAvidin-coated plate alone. […] All of the affinity matured peptides shown had signal to noise ratios of greater than 10 except for USP30_3.27 and USP30_3.62.

Compound: N[C@@H](Cc1ccc(O)c(O)c1)C(=O)O [L-DOPA]
rescue of paraquat-induced climbing defect (Drosophila [1]): fully rescued

Compound: C[n+]1ccc(-c2cc[n+](C)cc2)cc1 [paraquat, paraquat dichloride]
flies alive (Drosophila [2]): < 15%
average mass of paraquat per fly ([3]; Actin-GAL4>UAS-dUSP30^RNAi flies): 2.7 µg
average mass of paraquat per fly ([3]; Actin-GAL4 flies): 2.7 µg
average mass of paraquat per fly ([3]; UAS-dUSP30^RNAi flies): 3.2 µg
reduction in dopamine levels in fly heads (Drosophila [4]): 30-60%

Compound: CCAGAGCCCTGTTCGGTTT ((CCAGAGCCCTGTTCGGTTT; as printed in the source, key not given here) [rat USP30 shRNA]
increase in mitophagy index [5]: ~60%
reduction in endogenous USP30 (USP30): ~85%
relative oxidation index (hippocampal neurons): ~0.4

spot ELISA signal/noise ratio [6]: ~5
Compound: CC(C)C[C@H](NC(=O)[C@@H]1CCCN1)C(=O)N[C@@H](Cc1ccc(O)cc1)C(=O)N[C@H]1CSSC[C@@H](C(=O)N[C@@H](Cc2ccccc2)C(=O)N[C@@H](Cc2ccc(O)cc2)C(=O)O)NC(=O)[C@H](CC(C)C)NC(=O)[C@H](Cc2ccc(O)cc2)NC(=O)CNC(=O)[C@H](Cc2ccc(O)cc2)NC(=O)[C@H]([C@@H](C)O)NC(=O)[C@H](CC(C)C)NC(=O)[C@H](CC(=O)O)NC(=O)[C@H](Cc2ccc(O)cc2)NC(=O)[C@H](Cc2ccccc2)NC1=O [USP30_3, PLYCFYDLTYGYLCFY] (H-PLYCFYDLTYGYLCFY-OH; disulfide 4-14; N-terminus and C-terminus assumed)
